Reference: ChEMBL document CHEMBL4265991
The source made the active and inactive calls. The calls are words filed in the database; no cut-off is given here.

Assays:
[1] = Selectivity index, ratio of IC50 for recombinant human His-tagged IMPDH2 to IC50 for recombinant Cryptococcus neoformans His-tagged IMPDH
[2] = Selectivity index, ratio of IC50 for recombinant human His-tagged IMPDH1 to IC50 for recombinant Cryptococcus neoformans His-tagged IMPDH
[3] = target: Inosine-5'-monophosphate dehydrogenase (Cryptococcus neoformans var. neoformans serotype D (strain JEC21 /ATCC MYA-565) (Filobasidiella neoformans)) (UniProt Q5KP44); assay: Inhibition of recombinant Cryptococcus neoformans His-tagged IMPDH expressed in Escherichia coli BL21 (DE3) using IMP as substrate and DTT containing buffer in presence of NAD
Chain of Inosine-5'-monophosphate dehydrogenase (Cryptococcus neoformans var. neoformans serotype D (strain JEC21 /ATCC MYA-565) (Filobasidiella neoformans)) (Q5KP44 whole entry, looked up): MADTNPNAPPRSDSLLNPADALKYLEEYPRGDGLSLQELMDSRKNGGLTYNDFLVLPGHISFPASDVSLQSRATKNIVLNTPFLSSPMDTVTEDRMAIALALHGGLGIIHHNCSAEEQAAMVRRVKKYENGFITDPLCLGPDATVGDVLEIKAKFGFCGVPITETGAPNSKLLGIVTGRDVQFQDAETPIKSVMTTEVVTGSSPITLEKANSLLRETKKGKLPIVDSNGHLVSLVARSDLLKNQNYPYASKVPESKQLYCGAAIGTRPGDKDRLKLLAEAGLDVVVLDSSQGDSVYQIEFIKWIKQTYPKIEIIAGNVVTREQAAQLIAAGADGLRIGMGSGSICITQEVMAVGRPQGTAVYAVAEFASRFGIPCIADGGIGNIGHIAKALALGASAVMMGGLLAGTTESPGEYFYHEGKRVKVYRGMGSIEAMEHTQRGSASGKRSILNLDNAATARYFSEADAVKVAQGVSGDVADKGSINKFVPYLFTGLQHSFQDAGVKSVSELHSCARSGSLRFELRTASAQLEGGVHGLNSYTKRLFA

SMILES	Ratio IC50 [1]	Ratio IC50 [2]	inhibition [3]
COc1ccc(-c2nnc(SC3=CS(=O)(=O)c4ccccc43)o2)cc1	> 30	> 30	
O=S1(=O)C=C(Sc2nnc(-c3ccccc3)o2)c2ccccc21			inactive
COc1ccccc1-c1nnc(SC2=CS(=O)(=O)c3ccccc32)o1			inactive
COC(=O)c1ccc(-c2nnc(SC3=CS(=O)(=O)c4ccccc43)o2)cc1	> 30	> 30	
